This passage reports IC50 results from patent US8471005B2 (Cephalon, Inc., priority 2008, dated 2013).

In one assay the target is T1, ALK (Homo sapiens, UniProt Q9UM73).
T1 construct: host or cells: baculovirus expression system
Nature of the assay: ALK Kinase Assay (ELISA/TRF, PLC-γ substrate). Type of assay: biochemical. The note with it: ALK Kinase Inhibition; read-out: ALK Potency. Summed up: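 Read-out is time-resolved fluorescence from a Eu-N1-labeled PT66 antibody that binds phosphorylated PLC-γ, the substrate coated at 10 μg/mL in TBS. ALK at 30 ng/ml starts the reaction, which runs 15 minutes at 37° C.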
In general terms: ELISA stands for enzyme-linked immunosorbent assay.

Another assay deals with T2, JAK2 (Homo sapiens, UniProt O60674).
T2 construct: host or cells: baculovirus expression system
Nature of the assay: Recombinant Human JAK2 Kinase Assay (TRF). Type of assay: biochemical. The note with it: JAK2 Kinase Inhibition; read-out: JAK2 Potency. Summed up:
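Europium-labelled PY100 antibody reported tyrosine phosphorylation of a Neutravidin-captured biotinyl 15-mer peptide by JAK2 (baculovirus-expressed, 15 ng/ml). Conditions: 20 mM HEPES pH 7.2, 0.2 μM ATP, 1 mM MnCl2, 0.1% BSA, DMSO 2.5% final, 20 min at room temperature.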

A value given as a limit tells only on which side of the number the result lay.

T1 sequence (Q9UM73 19-1620): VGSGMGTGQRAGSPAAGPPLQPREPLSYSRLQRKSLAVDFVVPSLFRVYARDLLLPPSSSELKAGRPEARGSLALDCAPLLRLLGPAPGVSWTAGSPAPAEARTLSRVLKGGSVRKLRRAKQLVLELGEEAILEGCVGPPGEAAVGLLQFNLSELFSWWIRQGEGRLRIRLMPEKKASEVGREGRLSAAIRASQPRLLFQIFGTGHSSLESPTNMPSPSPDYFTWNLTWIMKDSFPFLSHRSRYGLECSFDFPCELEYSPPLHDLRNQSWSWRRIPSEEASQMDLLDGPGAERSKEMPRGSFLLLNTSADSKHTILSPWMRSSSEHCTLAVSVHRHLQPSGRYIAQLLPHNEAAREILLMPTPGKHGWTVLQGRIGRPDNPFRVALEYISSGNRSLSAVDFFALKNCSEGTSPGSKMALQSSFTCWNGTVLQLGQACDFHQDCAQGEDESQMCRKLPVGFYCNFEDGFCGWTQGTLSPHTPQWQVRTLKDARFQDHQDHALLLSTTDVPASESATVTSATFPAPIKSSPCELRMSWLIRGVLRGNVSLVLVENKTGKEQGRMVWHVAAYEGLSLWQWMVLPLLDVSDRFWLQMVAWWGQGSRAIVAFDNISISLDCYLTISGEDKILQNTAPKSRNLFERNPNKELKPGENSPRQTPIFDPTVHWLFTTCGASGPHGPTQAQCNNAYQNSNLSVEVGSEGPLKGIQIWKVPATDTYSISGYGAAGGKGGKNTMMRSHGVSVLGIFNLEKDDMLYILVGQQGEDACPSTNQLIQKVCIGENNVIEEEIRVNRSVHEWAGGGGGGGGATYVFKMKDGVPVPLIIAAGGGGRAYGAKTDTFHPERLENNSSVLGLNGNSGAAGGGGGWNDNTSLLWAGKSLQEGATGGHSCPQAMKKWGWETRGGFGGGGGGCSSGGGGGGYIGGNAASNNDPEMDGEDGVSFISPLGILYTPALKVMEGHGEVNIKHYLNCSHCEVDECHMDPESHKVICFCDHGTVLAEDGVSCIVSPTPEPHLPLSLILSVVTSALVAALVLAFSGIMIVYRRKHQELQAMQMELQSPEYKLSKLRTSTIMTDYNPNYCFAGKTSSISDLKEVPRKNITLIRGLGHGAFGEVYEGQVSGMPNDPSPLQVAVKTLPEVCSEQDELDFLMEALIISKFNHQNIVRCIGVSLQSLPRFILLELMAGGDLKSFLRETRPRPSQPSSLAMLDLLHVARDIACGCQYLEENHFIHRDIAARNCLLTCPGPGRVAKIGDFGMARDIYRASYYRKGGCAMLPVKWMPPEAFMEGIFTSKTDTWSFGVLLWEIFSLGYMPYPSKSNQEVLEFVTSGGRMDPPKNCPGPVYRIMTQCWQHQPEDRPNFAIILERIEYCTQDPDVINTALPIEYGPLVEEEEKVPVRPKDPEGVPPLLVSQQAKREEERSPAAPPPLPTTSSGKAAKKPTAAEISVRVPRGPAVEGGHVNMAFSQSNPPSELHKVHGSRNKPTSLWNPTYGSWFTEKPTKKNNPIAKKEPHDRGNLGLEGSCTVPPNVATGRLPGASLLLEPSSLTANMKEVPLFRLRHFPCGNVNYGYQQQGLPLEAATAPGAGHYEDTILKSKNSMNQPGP
T2 sequence (O60674 whole entry): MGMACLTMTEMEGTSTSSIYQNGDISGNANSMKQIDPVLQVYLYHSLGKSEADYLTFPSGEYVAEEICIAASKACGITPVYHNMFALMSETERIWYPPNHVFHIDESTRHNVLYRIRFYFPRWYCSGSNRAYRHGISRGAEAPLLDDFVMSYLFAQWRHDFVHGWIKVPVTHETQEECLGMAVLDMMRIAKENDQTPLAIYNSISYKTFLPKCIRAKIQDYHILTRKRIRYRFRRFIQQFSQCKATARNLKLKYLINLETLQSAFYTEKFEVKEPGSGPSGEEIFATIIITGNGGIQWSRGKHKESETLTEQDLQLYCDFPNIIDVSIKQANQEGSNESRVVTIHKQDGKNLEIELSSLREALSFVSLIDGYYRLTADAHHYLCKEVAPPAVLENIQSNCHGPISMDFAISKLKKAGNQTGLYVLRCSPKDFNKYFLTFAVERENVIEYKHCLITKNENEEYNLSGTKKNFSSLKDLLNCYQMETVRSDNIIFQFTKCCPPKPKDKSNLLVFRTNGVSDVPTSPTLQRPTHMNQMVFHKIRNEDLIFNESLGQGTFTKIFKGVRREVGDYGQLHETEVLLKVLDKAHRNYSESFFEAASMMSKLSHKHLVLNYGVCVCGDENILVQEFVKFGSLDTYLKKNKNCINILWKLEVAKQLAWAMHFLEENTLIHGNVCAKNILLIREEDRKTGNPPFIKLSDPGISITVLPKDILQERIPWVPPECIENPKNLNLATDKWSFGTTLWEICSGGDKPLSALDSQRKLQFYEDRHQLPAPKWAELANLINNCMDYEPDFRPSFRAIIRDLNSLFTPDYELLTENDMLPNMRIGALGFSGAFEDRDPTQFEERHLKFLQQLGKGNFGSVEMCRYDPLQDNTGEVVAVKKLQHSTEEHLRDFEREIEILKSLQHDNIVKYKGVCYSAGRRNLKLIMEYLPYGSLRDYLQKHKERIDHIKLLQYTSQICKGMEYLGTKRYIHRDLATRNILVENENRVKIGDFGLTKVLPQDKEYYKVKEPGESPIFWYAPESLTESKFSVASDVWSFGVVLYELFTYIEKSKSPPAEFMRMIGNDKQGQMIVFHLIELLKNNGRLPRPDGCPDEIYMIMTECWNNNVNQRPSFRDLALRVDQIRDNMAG

For `CN(c1ccccc1-c1cc(Cl)c2cnc(Nc3ccc(C4CCN(CC(N)=O)CC4)cc3)nn12)S(C)(=O)=O` [Example 1553, 2-[4-(4-{5-Chloro-7-[2-(methanesulfonyl-methyl-amino)-phenyl]-pyrrolo[2,1-f][1,2,4]triazin-2-ylamino}-phenyl)-piperidin-1-yl]-acetamide], the IC50 on ALK and on JAK2 was less than 100 nM throughout.

Regarding `COc1cc(C2CCN(CC(N)=O)CC2)ccc1Nc1ncc2c(Cl)cc(-c3ccccc3N(C)S(C)(=O)=O)n2n1` [Example 1554, 2-[4-(4-{5-Chloro-7-[2-(methanesulfonyl-methyl-amino)-phenyl]-pyrrolo[2,1-f][1,2,4]triazin-2-ylamino}-3-methoxy-phenyl)-piperidin-1-yl]-acetamide], the IC50 is less than 100 nM at ALK and 1000 to 10000 nM at JAK2.

For the molecule `COc1ccc(-c2cc(Cl)c3cnc(Nc4ccc(C5CCN(CC(N)=O)CC5)cc4)nn23)cn1` [Example 1555, 2-(4-{4-[5-Chloro-7-(6-methoxy-pyridin-3-yl)-pyrrolo[2,1-f][1,2,4]triazin-2-ylamino]-phenyl}-piperidin-1-yl)-acetamide], the IC50 at ALK was 100 to 1000 nM; on JAK2, less than 100 nM.

Turning to `CC1(C)C(=O)Nc2ccc(Nc3ncc4ccc(-c5ccccc5N5CCCS5(=O)=O)n4n3)cc21` [Example 1556, 5-({7-[2-(1,1-Dioxido-1,2-thiazolidin-2-yl)phenyl]pyrrolo[2,1-f][1,2,4]triazin-2-yl}amino)-3,3-dimethyl-1,3-dihydro-2H-indol-2-one], the IC50 at ALK and at JAK2 was less than 100 nM each time.

As to `CN1CCN(c2cccc(Nc3ncc4ccc(-c5cccc(CO)c5)n4n3)c2)CC1` [Example 1557, (3-{2-[3-(4-Methyl-piperazin-1-yl)-phenylamino]-pyrrolo[2,1-f][1,2,4]triazin-7-yl}-phenyl)-methanol], the IC50 on ALK and at JAK2 was less than 100 nM throughout.

On to `CN1CCN(c2cccc(Nc3ncc4ccc(-c5cccc(COC(C)(C)C)c5)n4n3)c2)CC1` [Example 1558, [7-(3-tert-Butoxymethyl-phenyl)-pyrrolo[2,1-f][1,2,4]triazin-2-yl]-[3-(4-methyl-piperazin-1-yl)-phenyl]-amine], for which the IC50 is 100 to 1000 nM at ALK and less than 100 nM on JAK2.

Turning to `CC(=O)Nc1cccc(Nc2ncc3ccc(-c4cccc(COC(C)(C)C)c4)n3n2)c1` [Example 1559, N-{3-[7-(3-tert-Butoxymethyl-phenyl)-pyrrolo[2,1-f][1,2,4]triazin-2-ylamino]-phenyl}-acetamide], the IC50 at ALK is 1000 to 10000 nM; at JAK2, less than 100 nM.

`CC(C)(C)OCc1cccc(-c2ccc3cnc(Nc4cccc(N5CCOCC5)c4)nn23)c1` [Example 1560, [7-(3-tert-Butoxymethyl-phenyl)-pyrrolo[2,1-f][1,2,4]triazin-2-yl]-(3-morpholin-4-yl-phenyl)-amine]: the IC50 on ALK is greater than 10000 nM; at JAK2 it was less than 100 nM.

On to `OCc1cccc(-c2ccc3cnc(Nc4cccc(N5CCOCC5)c4)nn23)c1` [Example 1561, {3-[2-(3-Morpholin-4-yl-phenylamino)-pyrrolo[2,1-f][1,2,4]triazin-7-yl]-phenyl}-methanol], for which the IC50 on ALK is 1000 to 10000 nM; on JAK2, less than 100 nM.

Turning to `c1ccc(-c2ccc3cnc(Nc4ccc5nc[nH]c5c4)nn23)nc1` [Example 1562, (3H-Benzimidazol-5-yl)-(7-pyridin-2-yl-pyrrolo[2,1-f][1,2,4]triazin-2-yl)-amine], the IC50 at ALK is 1000 to 10000 nM; on JAK2, less than 100 nM.

Turning to `CC1(C)C(=O)Nc2cc(Nc3ncc4ccc(-c5ccccn5)n4n3)ccc21` [Example 1563, 3,3-Dimethyl-6-(7-pyridin-2-yl-pyrrolo[2,1-f][1,2,4]triazin-2-ylamino)-1,3-dihydro-indol-2-one], the IC50 is 100 to 1000 nM at ALK and less than 100 nM at JAK2.
